# Test results taken from patent US20250205259A1, “CLASS OF 7-((FIVE-MEMBERED HETEROCYCLIC)METHYL)-8-CARBOXYLIC ACID-BENZO CYCLIC BORATE DERIVATIVES AND USES THEREOF” (priority 2022, published 2025).
# Where two headings read alike, the source gives them in different places.
# Assays:
# Type in all cases: biochemical
# NDM-1 = NDM-1 (Klebsiella pneumoniae, UniProt C7C422); assay: Inhibitory activity on MBL, fluorescent substrate FC-5
# NDM-5 = NDM-5 (Klebsiella pneumoniae, UniProt C7C422, M154L/V88L); assay: as above
# IMP-1 = IMP-1 (Serratia marcescens, UniProt P52699); assay: as above; conditions: read-out: Inhibitory activity on MBL IMP-1 (IC50 class)
# VIM-1 = VIM-1 (Pseudomonas aeruginosa, UniProt A0A0F7KYQ8); assay: as above
# VIM-2 = VIM-2 (Escherichia coli, UniProt Q5U7L7); assay: as above; conditions: read-out: Inhibitory activity on MBL VIM-2 (IC50 class)
# KPC-2 = KPC-2 (Klebsiella pneumoniae, UniProt Q9F663); assay: Inhibitory activity on SBL, fluorescent substrate FC-5; conditions: for IC50: read-out: Inhibitory activity on SBL KPC-2 (IC50 class); for inhibitory activity on KPC-2 compared to avibactam: comparison in words
# TEM-1 = TEM-1 (Escherichia coli, UniProt P62593); assay: as above; conditions: for IC50: read-out: Inhibitory activity on SBL TEM-1 (IC50 class); for inhibitory activity on TEM-1 compared to avibactam: comparison in words
# SHV-12 = target: T1, SHV-12 (UniProt P0AD64, L31Q/G234S/E235K, species not given); assay: as above; conditions: for IC50: read-out: Inhibitory activity on SBL SHV-12 (IC50 class)
# T1 sequence (P0AD64 1-286 L31Q/G234S/E235K): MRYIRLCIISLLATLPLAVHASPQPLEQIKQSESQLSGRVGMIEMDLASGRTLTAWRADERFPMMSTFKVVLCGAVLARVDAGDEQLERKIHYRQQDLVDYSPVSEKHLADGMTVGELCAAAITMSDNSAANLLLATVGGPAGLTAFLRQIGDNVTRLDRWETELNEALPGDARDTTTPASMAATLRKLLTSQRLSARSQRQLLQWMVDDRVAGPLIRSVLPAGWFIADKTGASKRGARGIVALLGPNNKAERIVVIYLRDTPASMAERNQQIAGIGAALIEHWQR
# CTX-M-14 = CTX-M-14 (Escherichia coli, UniProt Q9L5C7); assay: as above; conditions: for IC50: read-out: Inhibitory activity on SBL CTX-M-14 (IC50 class); for inhibitory activity on CTX-M-14 compared to avibactam: comparison in words
# OXA-48 = OXA-48 (Klebsiella pneumoniae, UniProt Q6XEC0); assay: as above; conditions: for IC50: read-out: Inhibitory activity on SBL OXA-48 (IC50 class); for inhibitory activity on OXA-48 compared to avibactam: comparison in words
# [1] = read-out: Inhibitory activity on MBL NDM-1 (IC50 class)
# [2] = read-out: inhibitory activity at a nanomolar-level on NDM-1
# [3] = read-out: Inhibitory activity on MBL NDM-5 (IC50 class)
# [4] = read-out: inhibitory activity at a nanomolar-level on NDM-5
# [5] = VIM-1 and/or VIM-2, read-out: inhibitory activity at a nanomolar-level on VIM-1 and/or VIM-2
# [6] = read-out: Inhibitory activity on MBL VIM-1 (IC50 class)
# Sequence of CTX-M-14 (Q9L5C7 entry or part of it): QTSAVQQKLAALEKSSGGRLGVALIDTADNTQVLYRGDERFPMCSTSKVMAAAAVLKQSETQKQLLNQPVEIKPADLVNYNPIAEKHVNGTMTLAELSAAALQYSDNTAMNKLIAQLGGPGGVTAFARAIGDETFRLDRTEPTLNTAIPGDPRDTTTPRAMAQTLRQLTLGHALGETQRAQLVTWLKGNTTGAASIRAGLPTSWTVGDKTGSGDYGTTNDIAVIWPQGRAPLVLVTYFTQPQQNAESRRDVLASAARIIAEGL
# Sequence of NDM-1 (C7C422 29-270 limits assumed): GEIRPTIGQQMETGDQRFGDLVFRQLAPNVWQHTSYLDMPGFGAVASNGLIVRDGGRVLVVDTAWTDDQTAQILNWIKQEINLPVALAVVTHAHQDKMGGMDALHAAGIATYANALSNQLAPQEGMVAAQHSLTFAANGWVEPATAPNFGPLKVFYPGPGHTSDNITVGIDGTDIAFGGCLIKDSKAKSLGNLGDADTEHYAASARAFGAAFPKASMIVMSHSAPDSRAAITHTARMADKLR
# Sequence of TEM-1 (P62593 24-286 limits assumed): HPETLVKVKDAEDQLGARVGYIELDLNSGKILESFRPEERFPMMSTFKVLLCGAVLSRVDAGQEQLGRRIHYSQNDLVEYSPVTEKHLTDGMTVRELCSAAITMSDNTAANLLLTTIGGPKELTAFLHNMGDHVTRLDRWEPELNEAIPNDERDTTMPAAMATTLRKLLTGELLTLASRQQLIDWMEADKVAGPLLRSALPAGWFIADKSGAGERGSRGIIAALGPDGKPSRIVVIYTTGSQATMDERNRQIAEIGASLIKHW
# Sequence of KPC-2 (Q9F663 25-293 limits assumed): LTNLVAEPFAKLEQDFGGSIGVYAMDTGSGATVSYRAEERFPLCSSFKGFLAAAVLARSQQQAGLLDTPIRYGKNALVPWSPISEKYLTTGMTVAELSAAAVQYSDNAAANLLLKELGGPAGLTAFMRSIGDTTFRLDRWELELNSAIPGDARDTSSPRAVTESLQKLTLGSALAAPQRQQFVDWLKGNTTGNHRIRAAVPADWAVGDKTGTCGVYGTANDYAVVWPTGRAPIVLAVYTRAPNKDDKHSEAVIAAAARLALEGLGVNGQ
# Sequence of IMP-1 (P52699 19-246 limits assumed): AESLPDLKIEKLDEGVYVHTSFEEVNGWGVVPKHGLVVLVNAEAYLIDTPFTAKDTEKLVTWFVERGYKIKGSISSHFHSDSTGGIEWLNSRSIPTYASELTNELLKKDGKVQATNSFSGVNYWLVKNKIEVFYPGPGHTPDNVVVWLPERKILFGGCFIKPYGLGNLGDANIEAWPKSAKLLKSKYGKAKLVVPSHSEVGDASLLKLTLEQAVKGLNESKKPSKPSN
# Sequence of NDM-5 (C7C422 29-270 V88L/M154L): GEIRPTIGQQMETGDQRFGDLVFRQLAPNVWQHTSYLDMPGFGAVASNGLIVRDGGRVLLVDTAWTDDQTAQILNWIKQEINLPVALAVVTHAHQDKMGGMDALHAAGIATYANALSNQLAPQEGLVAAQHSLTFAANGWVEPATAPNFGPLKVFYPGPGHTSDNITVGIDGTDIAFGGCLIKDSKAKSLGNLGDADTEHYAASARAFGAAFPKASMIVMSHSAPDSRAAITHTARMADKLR
# Sequence of OXA-48 (Q6XEC0 23-265 limits assumed): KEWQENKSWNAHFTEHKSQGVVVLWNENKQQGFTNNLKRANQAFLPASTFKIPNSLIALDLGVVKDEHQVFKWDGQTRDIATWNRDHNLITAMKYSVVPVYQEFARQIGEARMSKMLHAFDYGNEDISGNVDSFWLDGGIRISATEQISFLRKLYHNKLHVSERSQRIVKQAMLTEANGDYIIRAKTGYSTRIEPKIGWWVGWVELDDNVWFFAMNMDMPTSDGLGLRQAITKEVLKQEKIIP
SMILES,IC50 (NDM-1; [1]),IC50 (NDM-1; [2]),IC50 (NDM-5; [3]),IC50 (NDM-5; [4]),IC50 (IMP-1),IC50 (VIM-1; [5]),IC50 (VIM-1; [6]),IC50 (VIM-2),IC50 (KPC-2),IC50 (TEM-1),IC50 (SHV-12),IC50 (CTX-M-14),IC50 (OXA-48),inhibitory activity on KPC-2 compared to avibactam (KPC-2),inhibitory activity on TEM-1 compared to avibactam (TEM-1),inhibitory activity on CTX-M-14 compared to avibactam (CTX-M-14),inhibitory activity on OXA-48 compared to avibactam (OXA-48),inhibitory activity on SHV-12 compared to control drugs (SHV-12; comparison in words)
NCc1ccn(Cc2ccc3c(c2C(=O)O)OB(O)CC3)n1 [Compound 42],0.01 to 1 µM,< 1 µM,0.01 to 1 µM,< 1 µM,1 to 100 µM,< 1 µM,0.01 to 1 µM,0.01 to 1 µM,< 0.01 µM,< 0.01 µM,0.01 to 1 µM,0.01 to 1 µM,0.01 to 1 µM,–,–,–,–,–
O=C(O)c1c(CN2CC=CC2)ccc2c1OB(O)CC2 [Compound 26],1 to 100 µM,–,1 to 100 µM,–,1 to 100 µM,–,1 to 100 µM,1 to 100 µM,< 0.01 µM,0.01 to 1 µM,0.01 to 1 µM,0.01 to 1 µM,0.01 to 1 µM,–,–,–,–,–
Nc1cnn(Cc2ccc3c(c2C(=O)O)OB(O)CC3)c1 [Compound 32],0.01 to 1 µM,< 1 µM,0.01 to 1 µM,< 1 µM,1 to 100 µM,–,1 to 100 µM,0.01 to 1 µM,< 0.01 µM,0.01 to 1 µM,0.01 to 1 µM,< 0.01 µM,< 0.01 µM,–,–,–,–,–
O=C(O)c1c(Cn2ccnn2)ccc2c1OB(O)CC2 [Compound 2],0.01 to 1 µM,< 1 µM,0.01 to 1 µM,< 1 µM,1 to 100 µM,< 1 µM,1 to 100 µM,0.01 to 1 µM,< 0.01 µM,0.01 to 1 µM,0.01 to 1 µM,0.01 to 1 µM,0.01 to 1 µM,–,–,–,–,–
NC(=O)c1cnn(Cc2ccc3c(c2C(=O)O)OB(O)CC3)c1 [Compound 19],0.01 to 1 µM,< 1 µM,0.01 to 1 µM,< 1 µM,1 to 100 µM,< 1 µM,0.01 to 1 µM,0.01 to 1 µM,< 0.01 µM,< 0.01 µM,0.01 to 1 µM,0.01 to 1 µM,< 0.01 µM,better or comparable,better or comparable,better or comparable,better or comparable,–
O=C(O)c1c(Cn2cccn2)ccc2c1OB(O)CC2 [Compound 14],0.01 to 1 µM,< 1 µM,0.01 to 1 µM,< 1 µM,1 to 100 µM,< 1 µM,1 to 100 µM,0.01 to 1 µM,< 0.01 µM,0.01 to 1 µM,0.01 to 1 µM,< 0.01 µM,< 0.01 µM,–,–,–,–,–
NC(=O)c1ccn(Cc2ccc3c(c2C(=O)O)OB(O)CC3)n1 [Compound 20],0.01 to 1 µM,< 1 µM,0.01 to 1 µM,< 1 µM,1 to 100 µM,< 1 µM,0.01 to 1 µM,0.01 to 1 µM,< 0.01 µM,< 0.01 µM,0.01 to 1 µM,0.01 to 1 µM,< 0.01 µM,–,–,–,–,–
N#Cc1cnn(Cc2ccc3c(c2C(=O)O)OB(O)CC3)c1 [Compound 17],0.01 to 1 µM,< 1 µM,0.01 to 1 µM,< 1 µM,1 to 100 µM,< 1 µM,1 to 100 µM,0.01 to 1 µM,< 0.01 µM,< 0.01 µM,0.01 to 1 µM,0.01 to 1 µM,< 0.01 µM,better or comparable,better or comparable,better or comparable,better or comparable,–
NC1CN(C(=O)c2cnn(Cc3ccc4c(c3C(=O)O)OB(O)CC4)c2)C1 [Compound 72],0.01 to 1 µM,< 1 µM,0.01 to 1 µM,< 1 µM,0.01 to 1 µM,< 1 µM,0.01 to 1 µM,0.01 to 1 µM,< 0.01 µM,< 0.01 µM,< 0.01 µM,0.01 to 1 µM,0.01 to 1 µM,–,–,–,–,comparable to avibactam and tazobactam and superior to taniborbactam
